# Measurements as given in ChEMBL document CHEMBL1201862, “PubChem BioAssay data set” (2004).
# Activity calls are given as the source filed them.
# Experiments:
# HEK293 [1] = test: cells; details: Homo sapiens
# HEK293 [2] = test: cells; details: Homo sapiens; remark: listed apart in the source
# [3] = Fluorescence-based cell-based high throughput dose response assay for inhibitors of the interaction of nucleotide-binding oligomerization domain containing 2 (NOD2) and the receptor-interacting serine-threonine kinase 2 (RIPK2).; type: functional; details: Homo sapiens
# [4] = Luminescence Cell-Based Dose Retest to Confirm Inhibitors of Cancer Stem Cells. [Related pubchem assays (depositor defined):AID2717, AID2721]; type: functional; details: Homo sapiens
# [5] = biological target: T1, Heat shock factor protein 1 (Mus musculus, UniProt P38532); test: enhancement of HSF1-driven luciferase signal – cell-based, NIH3T3, luminescence, dose retest, confirmation (AID 435004); type: functional;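 also: stress induced by proteasome inhibitor MG132 added 30 min after compound; luciferase reporter driven by HSF1 response element in NIH3T3 cells; actives raise luminescence as potentiators of the MG132 stress response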
# T1 sequence (P38532 whole entry): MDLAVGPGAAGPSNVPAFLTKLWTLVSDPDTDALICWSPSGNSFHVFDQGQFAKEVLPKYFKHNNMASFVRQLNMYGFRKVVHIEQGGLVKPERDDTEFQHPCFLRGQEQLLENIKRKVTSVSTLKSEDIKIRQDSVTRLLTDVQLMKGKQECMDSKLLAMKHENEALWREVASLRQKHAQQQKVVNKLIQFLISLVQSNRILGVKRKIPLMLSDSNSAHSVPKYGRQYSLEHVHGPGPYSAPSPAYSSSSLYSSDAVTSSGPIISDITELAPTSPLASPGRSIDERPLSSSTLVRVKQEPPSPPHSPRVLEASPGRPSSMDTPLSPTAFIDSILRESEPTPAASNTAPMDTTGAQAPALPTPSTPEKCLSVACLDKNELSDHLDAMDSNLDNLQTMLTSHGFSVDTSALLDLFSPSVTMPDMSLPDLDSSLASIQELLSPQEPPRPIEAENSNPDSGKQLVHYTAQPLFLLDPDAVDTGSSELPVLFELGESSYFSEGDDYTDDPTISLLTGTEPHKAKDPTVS
# Galanin receptor type 2 = Galanin receptor type 2 (Homo sapiens, UniProt O43603); test: Dose Response cell-based high-throughput screening assay to identify antagonists of galanin receptor 2 (GALR2). [Related pubchem assays: 828, 866 ]; type: functional
# Galanin receptor type 2, sequence (O43603 whole entry): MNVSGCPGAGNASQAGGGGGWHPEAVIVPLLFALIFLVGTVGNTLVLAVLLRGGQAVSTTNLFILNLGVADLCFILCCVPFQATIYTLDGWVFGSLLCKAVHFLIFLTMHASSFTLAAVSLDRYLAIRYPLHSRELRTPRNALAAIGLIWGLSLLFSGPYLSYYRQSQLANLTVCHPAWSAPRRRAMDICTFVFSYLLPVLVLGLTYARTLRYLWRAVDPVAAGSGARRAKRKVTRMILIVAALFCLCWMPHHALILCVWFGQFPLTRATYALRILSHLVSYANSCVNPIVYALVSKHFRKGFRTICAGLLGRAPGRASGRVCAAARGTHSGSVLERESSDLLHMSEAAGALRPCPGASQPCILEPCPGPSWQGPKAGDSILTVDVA
# [6] = decrease of insulin promoter-GFP reporter – imaging, high-content screening, mouse beta cells (AID 1628); type: functional; details: MIN6
# [7] = MIN6 cell viability loss – mouse insulinoma, cytotoxicity control, dose response (AID 2122); type: functional;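 also: confirmatory high-throughput counterscreen run to flag cytotoxic compounds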
# Paired box protein Pax-8 = Paired box protein Pax-8 (Homo sapiens, UniProt Q06710); test: PAX8 transcriptional activity inhibition in RMG-I – RMG-I cells, luciferase, cherry-pick, dose response (AID 687027); type: functional, cell-based;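 also: luciferase reporter driven by Pax8 target thyroperoxidase promoter measured by SteadyGlo luminescence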
# Paired box protein Pax-8, sequence (Q06710 whole entry): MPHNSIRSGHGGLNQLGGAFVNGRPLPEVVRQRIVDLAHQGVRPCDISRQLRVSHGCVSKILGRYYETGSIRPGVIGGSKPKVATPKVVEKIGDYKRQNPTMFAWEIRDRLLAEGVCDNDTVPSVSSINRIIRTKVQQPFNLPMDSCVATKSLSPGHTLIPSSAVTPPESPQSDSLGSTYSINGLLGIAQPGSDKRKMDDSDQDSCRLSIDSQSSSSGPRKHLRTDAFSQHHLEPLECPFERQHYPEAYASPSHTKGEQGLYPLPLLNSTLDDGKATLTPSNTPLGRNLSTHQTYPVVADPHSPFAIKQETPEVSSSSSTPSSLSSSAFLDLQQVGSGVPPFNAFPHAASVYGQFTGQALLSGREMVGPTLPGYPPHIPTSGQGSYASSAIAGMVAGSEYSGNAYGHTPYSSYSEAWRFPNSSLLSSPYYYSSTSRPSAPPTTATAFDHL
# [8] = reduced cellular PGC1a acetyl-lysine signal – cell-based, cherry-picked samples, dose response (AID 720514); type: functional;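 also: potency may reflect raised or lowered acetylation signal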
# [9] = biological target: Sphingosine 1-phosphate receptor 1 (Homo sapiens, UniProt P21453); type: functional;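 also: Tango beta-arrestin reporter U2OS cells stimulated with S1P near its EC80; inhibitor potency meaning antagonism of receptor activation by the natural agonist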
# Sphingosine 1-phosphate receptor 1, sequence (P21453 whole entry): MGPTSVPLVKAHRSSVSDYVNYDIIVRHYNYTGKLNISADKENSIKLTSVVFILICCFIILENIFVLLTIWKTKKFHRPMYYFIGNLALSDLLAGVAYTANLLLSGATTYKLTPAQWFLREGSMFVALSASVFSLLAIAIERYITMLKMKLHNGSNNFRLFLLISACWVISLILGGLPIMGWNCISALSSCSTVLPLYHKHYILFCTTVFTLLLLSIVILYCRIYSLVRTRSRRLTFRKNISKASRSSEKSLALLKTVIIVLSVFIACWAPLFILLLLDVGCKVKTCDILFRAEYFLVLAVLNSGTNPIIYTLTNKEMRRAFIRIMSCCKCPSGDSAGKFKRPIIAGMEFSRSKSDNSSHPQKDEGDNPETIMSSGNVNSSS
# [10] = biological target: Sphingosine 1-phosphate receptor 4 (Homo sapiens, UniProt O95977); test: Fluorescence dose response cell-based high throughput screening assay for antagonists of the Sphingosine 1-Phosphate Receptor 4 (S1P4). [Related pubchem assays: 1524 (Confirmation in triplicates.), 1510 (Primary screen.)]; type: functional
# [11] = biological target: Heat shock protein HSP 90-alpha (Homo sapiens, UniProt P07900); type: functional, organism-based
# HeLa = test: Cytotoxicity counterscreen assay for transcriptional activators of heat shock protein 70 (Hsp70). [Related pubchem assays: 1203, 1252 ]; type: functional; details: Homo sapiens;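 also: cells exposed to compound for 16 hours before readout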
# INS1 = test: INS-1E survival protection against cytokine death – cell-based, luminescence, retest, dose response (AID 449756); type: functional; details: Rattus norvegicus;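 also: cell death triggered by IL-1 beta plus TNF-alpha plus IFN-gamma mixture; protective hits raise ATP signal compared with cytokine alone wells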
# Genome polyprotein [12] = biological target: Genome polyprotein (Hepatitis C virus, UniProt Q2Q167); test: disruption of hepatitis C core self-association – biochemical, TR-FRET, dose response (AID 2159); parameters: species or system Hepacivirus hominis;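 also: blocks dimerization of HCV core protein measured by TR-FRET between tagged core106 pairs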
# Genome polyprotein (Hepatitis C virus, UniProt Q2Q167), sequence (Q2Q167 whole entry): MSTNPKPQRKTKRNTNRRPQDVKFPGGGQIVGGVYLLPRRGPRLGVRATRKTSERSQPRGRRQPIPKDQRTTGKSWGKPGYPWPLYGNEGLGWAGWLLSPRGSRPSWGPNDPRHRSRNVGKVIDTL
# [13] = fluconazole-exposed Candida albicans growth modulators – fluorescence, retest, confirmation (AID 2467); type: functional, cell-based
# [14] = NIH-3T3 fibroblast cytotoxicity, dose response, cytotoxicity control, cell-based, fluorescence, Alamar Blue, secondary assay (AID 2327); type: functional;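 also: NIH-3T3 mouse fibroblasts cultured with fluconazole at 8 µg/mL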
# Genome polyprotein [15] = biological target: Genome polyprotein (dengue virus type 2, UniProt P29990); test: flavivirus cap methylation enzyme inhibition – biochemical, confirmation dose response, primary screen (AID 588689); type: functional
# Genome polyprotein (dengue virus type 2, UniProt P29990), sequence (P29990 2492-3391 limits assumed): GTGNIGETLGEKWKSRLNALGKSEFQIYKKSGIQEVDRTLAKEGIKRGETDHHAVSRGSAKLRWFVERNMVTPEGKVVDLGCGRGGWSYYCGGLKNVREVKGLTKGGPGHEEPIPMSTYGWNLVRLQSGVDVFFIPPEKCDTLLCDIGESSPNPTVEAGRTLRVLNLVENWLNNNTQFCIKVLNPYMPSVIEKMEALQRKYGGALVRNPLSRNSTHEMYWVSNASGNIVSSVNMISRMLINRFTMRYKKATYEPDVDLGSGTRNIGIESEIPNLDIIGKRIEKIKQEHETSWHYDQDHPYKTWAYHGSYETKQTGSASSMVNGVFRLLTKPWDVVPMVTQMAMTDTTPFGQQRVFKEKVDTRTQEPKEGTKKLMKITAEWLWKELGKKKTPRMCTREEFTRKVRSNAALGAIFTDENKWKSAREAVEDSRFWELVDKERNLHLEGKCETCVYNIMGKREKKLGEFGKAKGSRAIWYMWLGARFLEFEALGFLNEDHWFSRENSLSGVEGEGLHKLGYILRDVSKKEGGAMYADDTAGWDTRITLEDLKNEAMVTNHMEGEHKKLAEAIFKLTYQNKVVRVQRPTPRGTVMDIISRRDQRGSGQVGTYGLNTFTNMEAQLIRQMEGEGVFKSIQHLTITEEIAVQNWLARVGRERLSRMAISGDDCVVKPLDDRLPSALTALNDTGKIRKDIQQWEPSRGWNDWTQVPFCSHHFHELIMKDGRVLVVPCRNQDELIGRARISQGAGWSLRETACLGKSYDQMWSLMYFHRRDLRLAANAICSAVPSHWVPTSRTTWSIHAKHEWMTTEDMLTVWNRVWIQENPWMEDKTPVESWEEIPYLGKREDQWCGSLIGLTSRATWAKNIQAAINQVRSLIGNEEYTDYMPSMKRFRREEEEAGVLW
# [16] = antiviral protection against BTV-induced cell death – arbovirus, BSR cells, confirmation (AID 1250); type: functional;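 also: protection from viral cytopathic effect measured as cell viability by ATP luminescence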
# Vero = test: mammalian cell viability reduction – secondary assay, cytotoxicity control for West Nile virus antiviral project, dose response (AID 1650); type: functional; details: Chlorocebus sabaeus
# [17] = viability of PTEN-deleted HCT116 cells – cell-based, HCT116 PTEN knockout, dose response (AID 1047); type: functional;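 also: HCT116 colon tumor cells with PTEN knocked out; cells exposed to compound for 60 hours before readout; potency for loss of cell viability measured by luminescence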
# [18] = viability of HCT116 lacking mutant beta-catenin – cell-based, human colon tumor, dose response (AID 1045); type: functional;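 also: HCT116 colon tumor cells with beta catenin knocked out; cells exposed to compound for 60 hours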
# [19] = biological target: COUP transcription factor 2 (Homo sapiens, UniProt P24468); test: Luminescence-based cell-based high throughput dose response assay to identify inhibitors of COUP-TFII (NR2F2).; type: functional;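 also: HEK293 cells transiently cotransfected with COUP-TFII expression vector and reporter; luciferase reporter luminescence driven by COUP-TFII from the pX2-168 reporter plasmid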
# [20] = Shn3 3'UTR reporter signal decrease – cell-based, Clone20 osteoblasts, firefly luciferase, cherry-pick, set 2, Schnurri-3 inhibitor project, dose response (AID 720490); type: functional;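 also: actives lower the luminescence signal as inhibitors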
# [21] = Shn3 transcript knock-down in Clone20 cells – cell-based, qPCR, cherry-pick, dose response (AID 743415); type: functional
# [22] = biological target: Neurotensin receptor type 1 (Homo sapiens, UniProt P30989); type: functional;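 also: Image-based confirmatory dose-response assay measuring agonist activity at NTR1; NTR1-expressing U2OS osteosarcoma cells imaged for beta-arrestin GFP spot formation; agonist potency where compounds increase beta-arrestin recruitment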
# [23] = viability loss in CEM21 cells – cell-based, CellTiter-Glo luminescence, cherry-picked, cytotoxicity control for viral fusion inhibitor project, dose response (AID 652042); type: functional;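 also: potency for signal decrease meaning cytotoxicity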
# [24] = loss of viability in HepG2 cells – cell-based, CellTiter-Glo, cherry-picked, cytotoxicity control for Shn3 inhibitor project, dose response (AID 624134); type: functional
# Protein Wnt-3a = Protein Wnt-3a (Mus musculus, UniProt P27467); test: antagonism of Wnt3a pathway luciferase reporter – Wnt-LIGHT cells, luminescence, selectivity assay for Gli-SUFU antagonist project, dose response (AID 651570); type: functional; details: read-out: IC50_Mean;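 also: Wnt-LIGHT reporter cells stimulated with conditioned medium from Wnt3a-producing cells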
# Protein Wnt-3a, sequence (P27467 whole entry): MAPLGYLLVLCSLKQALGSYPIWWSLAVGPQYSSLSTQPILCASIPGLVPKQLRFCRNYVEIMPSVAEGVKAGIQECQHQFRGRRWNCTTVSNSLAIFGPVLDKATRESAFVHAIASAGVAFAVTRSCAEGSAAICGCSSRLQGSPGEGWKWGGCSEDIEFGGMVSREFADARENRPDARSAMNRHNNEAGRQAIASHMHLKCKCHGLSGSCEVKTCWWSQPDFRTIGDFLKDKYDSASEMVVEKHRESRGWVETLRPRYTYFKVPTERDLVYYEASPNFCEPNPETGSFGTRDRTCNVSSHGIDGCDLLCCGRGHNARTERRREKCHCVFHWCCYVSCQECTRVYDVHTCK
# [25] = biological target: Sphingosine 1-phosphate receptor 2 (Homo sapiens, UniProt O95136); test: Dose Response Cell Based Assay for Antagonists of the S1P2 Receptor. [Related pubchem assays: 856, 736 ]; type: functional
# Sphingosine 1-phosphate receptor 2, sequence (O95136 whole entry): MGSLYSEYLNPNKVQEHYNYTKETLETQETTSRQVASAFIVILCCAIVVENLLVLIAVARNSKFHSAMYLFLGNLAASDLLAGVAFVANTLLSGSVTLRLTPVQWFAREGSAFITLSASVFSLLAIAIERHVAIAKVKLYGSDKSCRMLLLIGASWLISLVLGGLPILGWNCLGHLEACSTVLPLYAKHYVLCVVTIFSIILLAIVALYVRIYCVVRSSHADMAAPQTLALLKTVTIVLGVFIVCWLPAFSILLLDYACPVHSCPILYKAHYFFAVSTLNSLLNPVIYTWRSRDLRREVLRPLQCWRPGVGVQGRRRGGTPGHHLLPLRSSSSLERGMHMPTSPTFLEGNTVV
# [26] = non-specific 3'UTR reporter inhibition in Clone20-Shn3RL – cell-based, Renilla luciferase, cherry-picked, counter-screen for Shn3 inhibitor project, dose response (AID 624133); type: functional
# [27] = blockers of HIV-1 envelope-mediated cell-cell fusion – cherry-pick, dose response (AID 652057); type: functional, cell-based
# [28] = HIV-1 AD8 envelope cell-cell fusion blockers – cherry-pick, dose response (AID 652062); type: functional, cell-based;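 also: luciferase signal from cell-cell fusion driven by HIV-1 clade B AD8 Env; potency is for inhibitors of fusion seen as a drop in luminescence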
# [29] = reduction of Shn3 3'UTR-driven luciferase in osteoblasts – cell-based, Clone20 osteoblasts, firefly luciferase, cherry-picked, dose response (AID 624132); type: functional;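 also: firefly luciferase luminescence from reporter carrying the Shn3 3'UTR in osteoblasts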
# [30] = biological target: Protein-tyrosine kinase 2-beta (Homo sapiens, UniProt Q14289);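 also: potency of inhibitors of PYK2 kinase phosphorylation of poly-GT substrate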
# Protein-tyrosine kinase 2-beta, sequence (Q14289 whole entry): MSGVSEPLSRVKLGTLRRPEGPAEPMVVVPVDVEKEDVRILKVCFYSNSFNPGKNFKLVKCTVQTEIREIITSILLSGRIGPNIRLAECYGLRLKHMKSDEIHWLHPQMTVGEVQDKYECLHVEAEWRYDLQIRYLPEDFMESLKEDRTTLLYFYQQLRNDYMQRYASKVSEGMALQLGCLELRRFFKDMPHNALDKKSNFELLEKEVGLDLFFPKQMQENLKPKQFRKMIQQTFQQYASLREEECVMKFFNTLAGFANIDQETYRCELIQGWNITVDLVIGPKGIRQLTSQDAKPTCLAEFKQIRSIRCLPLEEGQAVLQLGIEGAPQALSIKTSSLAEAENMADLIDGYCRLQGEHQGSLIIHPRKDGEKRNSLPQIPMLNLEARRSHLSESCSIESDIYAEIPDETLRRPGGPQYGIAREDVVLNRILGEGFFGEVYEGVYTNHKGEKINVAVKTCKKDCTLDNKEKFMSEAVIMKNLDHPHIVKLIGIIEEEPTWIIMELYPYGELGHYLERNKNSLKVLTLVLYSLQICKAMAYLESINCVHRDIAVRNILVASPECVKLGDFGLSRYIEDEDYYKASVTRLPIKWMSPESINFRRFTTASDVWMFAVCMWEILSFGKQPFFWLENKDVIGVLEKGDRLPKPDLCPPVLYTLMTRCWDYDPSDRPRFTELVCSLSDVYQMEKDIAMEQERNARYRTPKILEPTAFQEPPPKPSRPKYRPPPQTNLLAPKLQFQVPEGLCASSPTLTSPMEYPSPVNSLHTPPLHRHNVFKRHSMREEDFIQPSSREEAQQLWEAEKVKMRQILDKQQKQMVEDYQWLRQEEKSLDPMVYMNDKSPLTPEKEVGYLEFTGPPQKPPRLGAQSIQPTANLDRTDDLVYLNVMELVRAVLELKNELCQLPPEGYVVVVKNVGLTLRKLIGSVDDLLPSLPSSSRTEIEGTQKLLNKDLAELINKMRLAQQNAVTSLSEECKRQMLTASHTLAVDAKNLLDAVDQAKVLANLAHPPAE
# Estrogen receptor = biological target: T2, Estrogen receptor (Homo sapiens, UniProt P03372);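 also: potency for inhibiting coactivator peptide recruitment to the receptor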
# T2 sequence (P03372 whole entry): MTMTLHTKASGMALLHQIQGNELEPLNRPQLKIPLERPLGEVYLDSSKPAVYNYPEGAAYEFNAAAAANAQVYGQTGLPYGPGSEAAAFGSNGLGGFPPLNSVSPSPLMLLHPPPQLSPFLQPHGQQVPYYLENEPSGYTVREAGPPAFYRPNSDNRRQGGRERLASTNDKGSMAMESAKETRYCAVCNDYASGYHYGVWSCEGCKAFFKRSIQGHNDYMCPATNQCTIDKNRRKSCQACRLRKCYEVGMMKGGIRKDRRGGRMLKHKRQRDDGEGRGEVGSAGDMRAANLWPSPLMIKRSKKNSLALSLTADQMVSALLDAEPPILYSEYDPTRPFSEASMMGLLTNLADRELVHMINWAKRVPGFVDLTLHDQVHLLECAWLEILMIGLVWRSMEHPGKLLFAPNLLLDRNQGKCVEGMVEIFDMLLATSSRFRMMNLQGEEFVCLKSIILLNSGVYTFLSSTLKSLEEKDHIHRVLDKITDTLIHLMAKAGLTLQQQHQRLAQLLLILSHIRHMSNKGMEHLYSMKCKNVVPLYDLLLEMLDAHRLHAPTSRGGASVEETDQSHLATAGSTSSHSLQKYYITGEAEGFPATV
# SUMO-activating enzyme = SUMO-activating enzyme (Homo sapiens, UniProt Q9UBT2); test: blockers of SAE1/SAE2–UBC9 SUMO transfer – biochemical, HTRF, uHTS, primary screen (AID 2006); type: protein-complex assay
# SUMO-activating enzyme, sequence (Q9UBE0 whole entry): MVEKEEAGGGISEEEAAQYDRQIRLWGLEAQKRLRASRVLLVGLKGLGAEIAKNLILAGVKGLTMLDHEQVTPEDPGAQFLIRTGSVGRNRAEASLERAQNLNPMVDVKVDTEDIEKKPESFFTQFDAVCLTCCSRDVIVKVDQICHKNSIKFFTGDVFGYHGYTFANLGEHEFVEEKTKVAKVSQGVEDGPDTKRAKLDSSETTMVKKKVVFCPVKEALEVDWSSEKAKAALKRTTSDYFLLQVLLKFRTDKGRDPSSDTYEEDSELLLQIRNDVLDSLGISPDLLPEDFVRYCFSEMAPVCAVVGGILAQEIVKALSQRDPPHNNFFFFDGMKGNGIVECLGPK
# SUMO-activating enzyme, sequence (Q9UBT2 whole entry): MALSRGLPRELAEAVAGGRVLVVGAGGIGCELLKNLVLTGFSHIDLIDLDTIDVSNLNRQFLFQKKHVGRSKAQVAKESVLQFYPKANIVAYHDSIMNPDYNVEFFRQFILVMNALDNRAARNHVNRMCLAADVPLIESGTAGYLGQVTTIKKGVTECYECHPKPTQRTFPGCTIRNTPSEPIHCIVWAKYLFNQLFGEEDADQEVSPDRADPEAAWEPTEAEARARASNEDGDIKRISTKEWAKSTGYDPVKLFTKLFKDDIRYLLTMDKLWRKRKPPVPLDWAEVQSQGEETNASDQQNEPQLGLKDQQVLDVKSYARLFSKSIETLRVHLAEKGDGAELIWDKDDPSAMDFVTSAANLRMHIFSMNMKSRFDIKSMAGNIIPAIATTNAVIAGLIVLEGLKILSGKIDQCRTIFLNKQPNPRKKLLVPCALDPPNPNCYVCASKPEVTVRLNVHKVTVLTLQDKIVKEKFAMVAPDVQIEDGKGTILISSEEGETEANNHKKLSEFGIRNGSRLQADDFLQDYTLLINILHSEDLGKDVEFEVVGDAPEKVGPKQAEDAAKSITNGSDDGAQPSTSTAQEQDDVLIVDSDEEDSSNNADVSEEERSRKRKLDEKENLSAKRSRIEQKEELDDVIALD
# Cytochrome P450 2D6 = Cytochrome P450 2D6 (Homo sapiens, UniProt P10635);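 also: CYP2D6 member of a cytochrome P450 panel assay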
smiles,measurement,setting,value
O=C(Cn1ncc(Cl)c(Cl)c1=O)N1CCN(S(=O)(=O)c2ccc3ccccc3c2)CC1,EC50,HEK293 [1],> 59.6 µM (inactive)
same,EC50,HEK293 [2],> 59.6 µM (inactive)
same,IC50,[3],1.77 µM (active)
same,AC50,[4],3.25 µM (active)
same,EC50,[5],3.7 µM (active)
same,IC50,Galanin receptor type 2,5.37 µM (active)
same,IC50,[6],1.34 µM (active)
same,IC50,[7],1.19 µM (active)
same,AC50,Paired box protein Pax-8,2.51 µM (active)
same,AC50,[8],4.24 µM (active)
same,IC50,[9],8.59 µM (active)
same,IC50,[10],1.52 µM (active)
CC(C)(C)C1C/C(=C/c2ccccn2)C(=O)/C(=C/c2ccccn2)C1 (centres undefined),AC50,[11],7.8 µM (active)
same,CC50,HeLa,> 1.22 µM (not active)
same,AC50,INS1,579 nM (active)
CCc1nnc(NCC(=O)N2CCc3ccccc32)s1,IC50,Genome polyprotein [12],> 49.8 µM (not active)
CCCCCCn1c(=O)c(-c2ccccc2)c(O)c2ccccc21,EC50,[13],4.42 µM (active)
same,EC50,[14],> 150 µM (inactive)
same,IC50,Genome polyprotein [15],69.4 µM (active)
same,IC50,[16],25 µM (active)
C=CCn1c(SCC(=O)c2[nH]c(C)c(C(=O)OCC)c2C)nc2scc(-c3ccccc3)c2c1=O,CC50,Vero,> 100 µM (active)
same,EC50,[17],5.36 µM (active)
same,EC50,[18],3.85 µM (active)
Fc1ccc(-n2nnnc2-c2cnc(-c3cccs3)nc2C(F)(F)F)cc1,IC50,[19],12.8 µM (inactive)
same,AC50,[20],2.6 µM (active)
same,AC50,[21],24.4 µM (active)
same,EC50,[22],9.77 µM (active)
same,AC50,[23],18.8 µM (active)
same,AC50,[24],55 µM (active)
same,IC50,Protein Wnt-3a,5.83 µM (active)
same,IC50,[25],5.2 µM (active)
same,AC50,[26],13.3 µM (active)
same,AC50,[27],9.88 µM (active)
same,AC50,[28],40.4 µM (active)
same,AC50,[29],4.44 µM (active)
O=C(Nc1ccc(-n2nncc2-c2ccco2)cc1)c1cc2ccccc2oc1=O,IC50,[30],1.9 µM (active)
same,IC50,Estrogen receptor,40.6 µM (not active)
same,IC50,SUMO-activating enzyme,14.7 µM (active)
same,AC50,Cytochrome P450 2D6,2.51 µM (inconclusive)
